Results reported in PMC10447463, “Data-mining unveils structure–property–activity correlation of viral infectivity enhancing self-assembling peptides” (Nature Communications, 2023).
Where two headings read alike, the source gives them in different places.

How the values were obtained:
[1] = test system: HIV-1 infection of TZM-bl cells; test: HIV-1 infectivity enhancement assay, β-galactosidase luminescence; assay type: cell-based; settings: for Absolute Infectivity / RLU /s (Feb2021): figures match the 1.3 µM column; for Log10 of Rel to EFC (Feb2021): log10 of infectivity relative to EF-C; for Rel-to EFC (Feb-2021): n-fold infectivity relative to EF-C; for Log10 Inf. rel. to EF-C: log10 of HIV-1 infection of TZM-bl cells relative to EF-C, Fig S15 source data, asymmetric std dev errors; for Log10 Infection Rel EF-C: log10 of infection relative to EF-C
[2] = assay type: physicochemical; parameters: key to Fibril / Fibril Formation / TEM 2cat / Fibril: 1 = fibrils present; 0 non-fibrillar structures; settings: for Fibril / Fibril Formation: TEM, 1 mg/mL, uranyl acetate stain, qualitative
[3] = assay type: physicochemical; settings: for ThT Cat. / ThT-Fluorescence (categorical): ThT-active if fluorescence at least twice the control
Summary of the method: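 Fibrils (1 mg/mL solution) were mixed with 50 µM ThT in PBS for 15 min at RT, and fluorescence was read at λex 440/λem 488 nm against a PBS blank, as a triplicate mean ± SD. Zeta potential came from electrophoretic mobility (Smoluchowski) after 1 d aggregation at 1 mg/mL in PBS pH 7.4, diluted into 1 mM KCl.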

[4] = Feb2021, infectivity relative to virus only
[5] = infectivity class (low / medium / high) of each library peptide, main list in c1-c6, same classes repeated in sub-lists of sequences containing the hydrophobicity/charge patterns P+,H0,P+,H0,P0,H0,P0, P+,H0,P0,H0,P0,H0,P0, P+,H0,P0,H0
[6] = ThT fluorescence relative to blank, blank = 42.1851851851852
[7] = n-fold infection vs virus only, relative to that of EF-C, 1.3 µM peptide
[8] = Feb2021 run, infectivity n-fold relative to virus alone
[9] = relative to blank 42.1851851851852 a.u.
[10] = infectivity class (low / medium / high) of the peptide in the sequence-pattern analysis, Fig. S22-A4, class limits not given

Substance: RLRLTLC [CN13]
- Absolute Infectivity / RLU /s (Feb2021) ([1]; Feb2021): 1334 RLU /s
- n-fold to virus (Feb2021) [1, 4]: 2.165
- Log10 of Rel to EFC (Feb2021) ([1]; Feb2021): -1.288
- Rel-to EFC (Feb-2021) ([1]; Feb2021): 0.05153
- infectivity [1, 5]: low
- Log10 Inf. rel. to EF-C [1]: -1.288
- TEM: 1= fibrils, 0= aggregates (micelle), 0.5 = aggregates and fibrils, -1 = nothing obersved, STD prep [2]: 1
- Tht rel to blank (42.1851851851852) [3, 6]: 1.899
- Tht category (> 1.5 to blank = +) ([3]; category 1/0): 0 (ThT-inactive (N-Fold <2))

Substance: RATVYV [reference compound]
- Log10 Infection Rel EF-C ([1]; Figure 7B): -1.38
- Inf. rel. EF-C [1, 7]: 0.04
- Fibril / Fibril Formation [2]: 1
- ThT Cat. / ThT-Fluorescence (categorical) [3]: 0 (ThT-inactive (N-Fold <2))

Substance: KIKIQIN [JGB3]
- n-fold to virus (Feb2021) [1, 8]: 11.14
- Log10 of Rel to EFC (Feb2021) ([1]; Feb2021 run): -0.5766
- Rel-to EFC (Feb-2021) ([1]; Feb2021 run): 0.2651
- Rel-to EFC ([1]; Fig S8 panels B, D, infectivity enhancement relative to EF-C): 0.2651
- n-fold to virus ([1]; Fig S8 panels B, D, infectivity n-fold relative to virus alone): 11.14
- infectivity [1, 5]: medium
- Log10 Inf. rel. to EF-C [1]: -0.5766
- TEM: 1= fibrils, 0= aggregates (micelle), 0.5 = aggregates and fibrils, -1 = nothing obersved, STD prep [2]: 1
- Tht category (> 1.5 to blank = +) ([3]; category 1/0): 0 (ThT-inactive (N-Fold <2))
- Tht rel to blank (42.1851851851852) [3, 9]: 1.784

Substance: MKVIFLKDVKG [reference compound]
- infectivity enhancement, in words ([1]; fibril-forming peptides with positive zeta-potential, low count rate): do not enhance infectivity
- Log10 Infection Rel EF-C ([1]; Figure 7B): -0.93
- Inf. rel. EF-C [1, 7]: 0.12
- Fibril / Fibril Formation [2]: 1
- ThT Cat. / ThT-Fluorescence (categorical) [3]: 0 (ThT-inactive (N-Fold <2))

Substance: KIKIQINMAQ [JR2]
- infectivity [1, 5]: medium
- Log10 Inf. rel. to EF-C [1]: -0.6722
- TEM: 1= fibrils, 0= aggregates (micelle), 0.5 = aggregates and fibrils, -1 = nothing obersved, STD prep ([2]; FigS26): 1
- Tht category (> 1.5 to blank = +) ([3]; FigS26): 0 (Tht category (> 1.5 to blank = +))

Substance: CKIKIQIII [AR0 / F19]
- n-fold to virus (Feb2021) [1, 8]: 41.02
- Log10 of Rel to EFC (Feb2021) ([1]; Feb2021 run): -0.01045
- Rel-to EFC (Feb-2021) ([1]; Feb2021 run): 0.9762
- infectivity [1, 5]: high
- infectivity [1, 10]: high
- Log10 Inf. rel. to EF-C [1]: -0.01045
- TEM: 1= fibrils, 0= aggregates (micelle), 0.5 = aggregates and fibrils, -1 = nothing obersved, STD prep [2]: 1
- Tht category (> 1.5 to blank = +) ([3]; category 1/0): 1 (ThT. Cat is 1, if Rel. ThT >2)
- Tht rel to blank (42.1851851851852) [3, 9]: 4.14

Substance: KAKLTCT
- Inf. rel. EF-C ([1]; HIV-1 infection relative to EF-C, Fig 23 plot, panels A and B, mean of 3 values): 0.0665
- Inf. rel. EF-C ([1]; HIV-1 infection relative to EF-C, Fig 23 plot, single data point, replicate 1): 0.09602
- Inf. rel. EF-C ([1]; HIV-1 infection relative to EF-C, Fig 23 plot, single data point, replicate 2): 0.05821
- Inf. rel. EF-C ([1]; HIV-1 infection relative to EF-C, Fig 23 plot, single data point, replicate 3): 0.04527
- Log10 Infection Rel EF-C ([1]; Figure 6C): -1.177
- Inf. rel. EF-C [1, 7]: 0.07
- Fibril / Fibril Formation [2]: 0
- ThT Cat. / ThT-Fluorescence (categorical) [3]: 0 (ThT-inactive (N-Fold <2))

Substance: KFKQFFINMWQ [VH14]
- Absolute Infectivity / RLU /s (Feb2021) ([1]; Feb2021): 14953.33333 RLU /s
- n-fold to virus (Feb2021) [1, 4]: 38.67
- Log10 of Rel to EFC (Feb2021) ([1]; Feb2021): -0.03603
- Rel-to EFC (Feb-2021) ([1]; Feb2021): 0.9204
- infectivity [1, 10]: high
- Log10 Inf. rel. to EF-C [1]: -0.03603
- TEM: 1= fibrils, 0= aggregates (micelle), 0.5 = aggregates and fibrils, -1 = nothing obersved, STD prep [2]: 0
- Tht rel to blank (42.1851851851852) [3, 6]: 1.085
- Tht category (> 1.5 to blank = +) ([3]; category 1/0): 0 (ThT-inactive (N-Fold <2))

Substance: KFQFNMW
- Log10 Infection Rel EF-C ([1]; Figure 6C): -0.7437
- Inf. rel. EF-C [1, 7]: 0.18
- Fibril / Fibril Formation [2]: 1
- ThT Cat. / ThT-Fluorescence (categorical) [3]: 0 (ThT-inactive (N-Fold <2))

Substance: KIKIQIMWNQ [VH15]
- infectivity [1, 5]: medium
- Log10 Inf. rel. to EF-C [1]: -0.2495
- TEM: 1= fibrils, 0= aggregates (micelle), 0.5 = aggregates and fibrils, -1 = nothing obersved, STD prep ([2]; FigS26): 1
- Tht category (> 1.5 to blank = +) ([3]; FigS26): 0 (Tht category (> 1.5 to blank = +))

Substance: KLKLKLQL [TG16]
- Absolute Infectivity / RLU /s (Feb2021) ([1]; Feb2021): 2097 RLU /s
- n-fold to virus (Feb2021) [1, 4]: 4.111
- Log10 of Rel to EFC (Feb2021) ([1]; Feb2021): -1.009
- Rel-to EFC (Feb-2021) ([1]; Feb2021): 0.09784
- infectivity [1, 5]: low
- infectivity [1, 10]: low
- Log10 Inf. rel. to EF-C [1]: -1.009
- TEM: 1= fibrils, 0= aggregates (micelle), 0.5 = aggregates and fibrils, -1 = nothing obersved, STD prep [2]: 1
- Tht rel to blank (42.1851851851852) [3, 6]: 1.572
- Tht category (> 1.5 to blank = +) ([3]; category 1/0): 0 (ThT-inactive (N-Fold <2))
